Literature values, collected in patent US20090048237A1 (priority 2007, published 2009).
Like-named read-outs stand apart in the source and are kept apart here.

Experiments:
[1] = human, in vivo
[2] = not given; remark: listed apart in the source
[3] = 0.2 mg/kg sublingual versus 0.2 mg/kg nasal, children
[4] = in vivo
[5] = sublingual Halcion tablets
[6] = 200 mcg sublingual
[7] = children
[8] = 125 mcg and 250 mcg

Row | Compound | patients with complete drug dissolution within 10 min (7.5 mg sublingual tablet) | sedation scores (7.5 mg sublingual versus oral, 30 and 60 min after administration) | children who had not previously cried that cried on administration [1] | patients who experienced nasal irritation [1] | children with satisfactory sedation at 15 min after administration ([2]; 0.25 mg/kg under the tongue) | children with satisfactory sedation at 15 min after administration ([2]; 0.5 mg/kg under the tongue) | children with satisfactory sedation at 15 min after administration ([2]; 0.75 mg/kg under the tongue) | midazolam level 30 min after premedication [3] | tablet dissolution time [4] | tablet dissolution after dosing [5] | depth of sedation versus 10 mg oral diazepam [6] | time after administration at which sedation developed ([6]; 61-70 year old patients) | average sublingual tablet dissolution [7] | sedation and psychomotor performance, elderly versus young persons at the same dose [8]
1 | Cc1ncc2n1-c1ccc(Cl)cc1C(c1ccccc1F)=NC2 [Midazolam, 8-chloro-6-(2-fluorophenyl)-1-methyl-4H-imidazo[1,5-a][1,4]benzodiazepine] | 72% | higher than in the oral group | 71% | 20 | 28% | 52% | 64% | statistically significantly higher than in the nasal group | – | – | – | – | – | –
2 | Cc1nnc2n1-c1ccc(Cl)cc1C(c1ccccc1Cl)=NC2 [Triazolam, 8-chloro-6-(o-chlorophenyl)-1-methyl-4H-s-triazolo-[4,3-alpha][1,4]benzodiazepine] | – | – | – | – | – | – | – | – | ≤ 90 s | 2 to 3 min | deeper sedation | 60 to 90 min | 4 min | greater degree of sedation and greater impairment of psychomotor performance
